# Patent US12053504B2, “Anti-angiogenic treatment using VLO4 with a blocking peptide” ([…] OF PHARMACY, LLC, priority 2011, dated 2024)
# “Also recorded” adds a separate entry of the source.
# Columns and labels:
# colorectal cancer = details: in combination with the standard Saltz regime of irinotecan, 5-fluorouracil, and leucovorin; cited from earlier work
# HDMEC = assay: Microcarrier (EC-bead) in vitro sprout angiogenesis assay of HDMEC in fibrin gel; type: cell-based, human; details: for sprout angiogenesis in a HDMEC culture in VEGF and bFGF (Example 4): agent(s) added to HDMEC culture in VEGF and bFGF, doses not printed in this block; for sprout angiogenesis of HDMEC in fibrin induced by VEGF and bFGF: 3 days; for sprout angiogenesis of HDMEC in fibrin, single agent (Example 4 summary): in vitro, doses not given
# Protocol: Human dermal microvascular endothelial cells (HDMEC) were isolated from human neonatal foreskins. Briefly, after initial harvest from minced trypsinized human foreskins, microvascular endothelial cells were further purified on a PERCOLL density gradient. HDMEC were cultured on collagen type 1 coated tissue culture flasks in EGM (endothelial cell growth medium) consisting of EBM supplemented with 10 ng/ml epidermal growth factor, 0.4% bovine brain extract, 17.5 microg/ml dibutyryl cyclic AMP, and 1 microg/ml hydrocortisone in the presence of 30% normal human serum. Endothelial cell cultures were characterized and determined to be >99% pure on the basis of formation of typical cobblestone monolayers in culture, positive immunostaining for factor VIII-related antigen, and selective uptake of acetylated low density lipoprotein. All experiments were done with HDMEC below passage 10. Bovine aortic endothelial cells (BAEC) were obtained from BioWhittaker, Inc. (Walkersville, MD) and cultured according to manufacturer's instruction. BAEC between passage 4 and 8 were used for experiments.
# Gelatin-coated CYTODEX-3 microcarrier beads were prepared as described by the manufacturer. Approximately 80,000 sterile microcarrier beads were washed, resuspended in EGM, and added to approximately 4.5 million endothelial cells (HDMEC or BAEC). The beads and cells were mixed by gentle swirling, incubated at 37° C. for 6 hr, and then rotated for 24-36 hr on an orbital mixer in a 37° C. oven to generate endothelial cell-loaded microcarrier beads (EC-beads).
# FIGS. 1A-1C illustrate a study of human microvascular endothelial cell angiogenesis, according to some embodiments. A microcarrier, in vitro angiogenesis assay, previously designed to investigate bovine pulmonary artery endothelial cell angiogenic behavior in bovine fibrin gels, was modified for the study of human microvascular endothelial cell angiogenesis. The HDMEC were isolated from human neonatal foreskins and used, as described above, and images were captured at various magnifications, where the effect of angiogenic factors on sprout angiogenesis was quantified visually by counting the number and percent of EC-beads with capillary sprouts. […]
# For experiments using RGD peptides, EC-beads were firstly incubated with vary concentrations of peptides for one hour and then were added to the ECM solutions. About 500 EC-beads were then added to the ECM protein solutions, followed by the addition of 0.5 U/ml human thrombin. A 0.3 ml aliquot of each suspension was immediately added to appropriate wells of a 24-well tissue culture plate. After gelation, 1 ml of fresh assay medium (EBM supplemented with 20% normal human serum for HDMEC or EBM supplemented with 10% fetal bovine serum for BAEC) was added to each well.
# FIGS. 1B and 1C show how the angiogenic response was monitored visually and recorded by video image capture. Specifically, capillary sprout formation was observed and recorded with a NIKON Diaphot-TMD inverted microscope (Nikon Inc., Melville, NY), equipped with an incubator housing with a NIKON NP-2 thermostat and Sheldon #2004 carbon dioxide flow mixer. The microscope was directly interfaced to a video system consisting of a Dage-MTI CCD-72S video camera and Sony 12″ PVM-122 video monitor linked to a Macintosh G3 computer. The images were captured at various magnifications using Adobe Photoshop. The effect of angiogenic factors on sprout angiogenesis was quantified visually by determining the number and percent of EC-beads with capillary sprouts. 100-200 beads (five random low power fields) in each of triplicate wells were counted for each experimental condition. All experiments were repeated at least three times.
# HT1080 tumor cell = HT1080 tumor cell invasion from contracted collagen into fibrin 3D matrices; type: cell-based; details: for HT1080 tumor cell invasion from contracted collagen into fibrin 3D matrices: 3 μg/ml, FIGS. 11 and 12
# [1] = molecular target: collagen receptors α2β1 integrins (Homo sapiens, UniProt P05556+P17301); details: cited from earlier work
# [2] = system: A549 (human alveolar adenocarcinoma cell line); assay: A549 tumor cell proliferation; type: cell-based; details: FIG. 13
# [3] = system: H1650 (Human metastatic lung cancer cell line); assay: H1650 tumor cell proliferation; type: cell-based; details: FIG. 13
molecule,measurement,setting,value
AVASTATIN: human monoclonal antibody to VEGF,increase in survival time,colorectal cancer,more than 30%
Echistatin (QCESGPCCRNCKFLKEGTICKRARGDDMDDYCNGKTCDCPRNPHKGPAT),sprout angiogenesis in a HDMEC culture in VEGF and bFGF (Example 4),HDMEC,inhibition
same,sprout angiogenesis of HDMEC in fibrin induced by VEGF and bFGF,"HDMEC; echistatin 0.1 μg/ml alone, VEGF 30 ng/ml, bFGF 25 ng/ml, FIG. 10B",didn't significantly inhibit
same,"sprout angiogenesis of HDMEC in fibrin, single agent (Example 4 summary)",HDMEC,dose dependently inhibits
same,HT1080 tumor cell invasion from contracted collagen into fibrin 3D matrices,HT1080 tumor cell,significantly inhibit
"GPenGRGDSPCA [RGD[VN], reference compound]",sprout angiogenesis of HDMEC in fibrin,"HDMEC; RGD[VN] 12.5 mM-100 mM, pre-incubated 1 hr at RT, VEGF 100 ng/ml, compared to GRGESP[RGE] control peptide, FIG. 4",significantly inhibited
VP12,inhibitory activity against collagen receptors α2β1 integrins,[1],potent inhibitory activity
same,sprout angiogenesis of HDMEC in fibrin induced by VEGF and bFGF,"HDMEC; VP12 10 μg/ml alone, VEGF 30 ng/ml, bFGF 25 ng/ml",didn't significantly inhibit
same,enhancement of the inhibition of sprout angiogenesis by echistatin,HDMEC; VP12 (ECL12) administered in combination with echistatin,significantly and synergistically enhanced
same,sprout angiogenesis in a HDMEC culture in VEGF and bFGF (Example 4),HDMEC,inhibition
same,"sprout angiogenesis of HDMEC in fibrin, single agent (Example 4 summary)",HDMEC,no inhibitory effect
same,HT1080 tumor cell invasion from contracted collagen into fibrin 3D matrices,HT1080 tumor cell,significantly inhibit
VLO4 (protein) MNSGNPCCDPVTCKPRRGEHCVSGPCCRNCKFLNAGTICKRARGDDMNDYCTGISPDCPRNPWKG,sprout angiogenesis of HDMEC in fibrin induced by VEGF and bFGF,"HDMEC; VLO4 0.01 μg/ml alone, VEGF 30 ng/ml, bFGF 25 ng/ml",didn't significantly inhibit
same,sprout angiogenesis of HDMEC induced by VEGF in fibrin,"HDMEC; VLO4 0.3 μg/ml-3 μg/ml, 30 minutes at RT, VEGF 100 ng/ml, FIG. 5",dose-dependently inhibits
same,disruption of newly formed angiogenic sprouts of HDMEC in fibrin,"HDMEC; VLO4 3 μg/ml added on day 5, read within 24 hours, VEGF 30 ng/ml, bFGF 25 ng/ml, CH2 10 μg/ml, FIG. 7B",totally disrupted; also recorded: disrupts
same,sprout angiogenesis of HDMEC induced by VEGF in fibrin (micrographs),"HDMEC; VLO4 0.01, 0.1, 0.3 and 1 μg/ml, 30 minutes at room temperature, VEGF 100 ng/ml, FIGS. 6A-6D",dose-dependently inhibits
same,HT1080 tumor cell invasion from contracted collagen into fibrin 3D matrices,HT1080 tumor cell,significantly inhibit
same,"HT1080 tumor cell invasion from contracted 3D collagen matrices into 3D fibrin matrices, dose dependence",HT1080 tumor cell; FIG. 11,dose dependently inhibits
same,A549 tumor cell proliferation,[2],significantly inhibited
same,H1650 tumor cell proliferation,[3],significantly inhibited
